# Biological target: T1, human liver GK (Homo sapiens, UniProt P35557)
# T1 construct: GST (glutathione S-transferase) (N); made in house; host or cells: E. coli
# T1 sequence (P35557 1-466 isoform P35557-2): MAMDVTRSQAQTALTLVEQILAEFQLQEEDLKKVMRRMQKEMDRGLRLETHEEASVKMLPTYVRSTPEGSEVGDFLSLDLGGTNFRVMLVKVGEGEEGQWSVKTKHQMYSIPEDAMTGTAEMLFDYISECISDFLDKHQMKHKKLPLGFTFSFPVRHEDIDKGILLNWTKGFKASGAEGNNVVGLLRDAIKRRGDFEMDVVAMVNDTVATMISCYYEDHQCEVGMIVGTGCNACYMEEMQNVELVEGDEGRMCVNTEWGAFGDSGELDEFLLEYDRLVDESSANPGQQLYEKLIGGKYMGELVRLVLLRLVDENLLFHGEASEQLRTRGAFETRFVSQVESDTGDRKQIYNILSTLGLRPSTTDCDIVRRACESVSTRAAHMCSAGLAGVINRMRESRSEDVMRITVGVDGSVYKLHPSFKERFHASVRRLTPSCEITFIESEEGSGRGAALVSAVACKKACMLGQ
# Assay: GK activation test
# Type: biochemical
# Conditions: test compound concentration needed to activate 50% of maximum activation ability; 4 mM 14C-labeled glucose, 2 mM ATP, room temperature, 20 minutes
# How it was run: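 GST-tagged human liver GK from E. coli (0.24 μg/well) with 4 mM 14C-glucose, 2 mM ATP in Hepes-KOH pH 7.1, KCl, MgCl2, DTT, 1% DMSO, 20 min room temperature. Labeled glucose 6-phosphate captured on anion resin, eluted and counted. EC50 = concentration giving half of maximal activation.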
row,SMILES,EC50
1,"CCS(=O)(=O)c1ccc(/C(=C\[C@H]2CCC(=O)N2)c2ccc(Cl)c(=O)[nH]2)cc1Cl [Example 4-58, 3-Chloro-6-{(E)-1-[3-chloro-4-(ethylsulfonyl)phenyl]-2-[(2R)-5-oxopyrrolidin-2-yl]ethenyl}pyridin-2(1H)-one]",0.5 to 3 µM
2,"O=C1CC[C@H](/C=C(\c2ccc(S(=O)(=O)C3CCCC3)cc2)c2ccc(Cl)c(=O)[nH]2)N1 [Example 4-60, 3-Chloro-6-{(E)-1-[4-(cyclopentylsulfonyl)phenyl]-2-[(2R)-5-oxopyrrolidin-2-yl]ethenyl}pyridin-2(1H)-one]",0.01 to 0.5 µM
3,"CCN(CC)CCCCOc1ccc(/C(=C\[C@H]2CCC(=O)N2)c2ccc(C3CC3)c(=O)[nH]2)cc1Cl [Example 4-62, 6-{(E)-1-{3-Chloro-4-[4-(diethylamino)butoxy]phenyl}-2-[(2R)-5-oxopyrrolidin-2-yl]ethenyl}-3-cyclopropylpyridin-2(1H)-one]",0.01 to 0.5 µM
4,"CCN(CC)CCCCOc1ccc(/C(=C\[C@H]2CCC(=O)N2)c2ccc(Cl)c(=O)[nH]2)cc1Cl [Example 4-63, 3-Chloro-6-{(E)-1-{3-chloro-4-[4-(diethylamino)butoxy]phenyl}-2-[(2R)-5-oxopyrrolidin-2-yl]ethenyl}pyridin-2(1H)-one]",0.5 to 3 µM
5,"O=C1CC[C@H](/C=C(\c2ccc(OCCCCN3CCCC3)c(Cl)c2)c2ccc(Cl)c(=O)[nH]2)N1 [Example 4-64, 3-Chloro-6-{(E)-1-{3-chloro-4-[4-(pyrrolidin-1-yl)butoxy]phenyl}-2-[(2R)-5-oxopyrrolidin-2-yl]ethenyl}pyridin-2(1H)-one]",0.01 to 0.5 µM
6,"CC(C)c1ccc(/C(=C\[C@H]2CCC(=O)N2)c2ccc(C3CC3)c(=O)[nH]2)cc1 [Example 4-67, 3-Cyclopropyl-6-{(E)-2-[(2R)-5-oxopyrrolidin-2-yl]-1-[4-(propan-2-yl)phenyl]ethenyl}pyridin-2(1H)-one]",0.01 to 0.5 µM
7,"CCC(=O)N1CC[C@H](/C=C(\c2ccc(C(C)(C)C)cc2)c2ccc(Cl)c(=O)[nH]2)C1 [Example 4-68, 6-{(E)-1-(4-tert-Butylphenyl)-2-[(3R)-1-propanoylpyrrolidin-3-yl]ethenyl}-3-chloropyridin-2(1H)-one]",0.01 to 0.5 µM
8,"CCS(=O)(=O)N1CC[C@H](/C=C(\c2ccc(C(C)(C)C)cc2)c2ccc(Cl)c(=O)[nH]2)C1 [Example 4-72, 6-{(E)-1-(4-tert-Butylphenyl)-2-[(3R)-1-(ethylsulfonyl)pyrrolidin-3-yl]ethenyl}-3-chloropyridin-2(1H)-one]",0.01 to 0.5 µM
9,"CC(C)c1ccc(/C(=C\[C@H]2CCC(=O)N2)c2ccc(C3CC3)c(=O)[nH]2)cc1Cl [Example 4-81, 6-{(E)-1-[3-Chloro-4-(propan-2-yl)phenyl]-2-[(2R)-5-oxopyrrolidin-2-yl]ethenyl}-3-cyclopropylpyridin-2(1H)-one]",0.01 to 0.5 µM
10,"CC(C)c1ccc(/C(=C\[C@H]2CCC(=O)N2)c2ccc(Cl)c(=O)[nH]2)cc1Cl [Example 4-84, 3-Chloro-6-{(E)-1-[3-chloro-4-(propan-2-yl)phenyl]-2-[(2R)-5-oxopyrrolidin-2-yl]ethenyl}pyridin-2(1H)-one]",0.01 to 0.5 µM
11,"CN1CCN(S(=O)(=O)c2ccc(C(C[C@H]3CCC(=O)N3)c3ccc(Cl)c(=O)[nH]3)cc2)CC1 (stereo partly drawn) [Example 4-89, 3-Chloro-6-(1-{4-[(4-methylpiperazin-1-yl)sulfonyl]phenyl}-2-[(2R)-5-oxopyrrolidin-2-yl]ethyl)pyridin-2(1H)-one]",3 to 10 µM
12,"CC(C)(C)c1ccc(/C(=C\[C@H]2CCN(C(=O)C3CCOCC3)C2)c2ccc(Cl)c(=O)[nH]2)cc1 [Example 4-93, 6-{(E)-1-(4-tert-Butylphenyl)-2-[(3R)-1-(tetrahydro-2H-pyran-4-ylcarbonyl)pyrrolidin-3-yl]ethenyl}-3-chloropyridin-2(1H)-one]",3 to 10 µM
13,"O=C1CC[C@H](/C=C(\c2ccc(F)cc2)c2ccc(C3CC3)c(=O)[nH]2)N1 [Example 4-100, 3-Cyclopropyl-6-{(E)-1-(4-fluorophenyl)-2-[(2R)-5-oxopyrrolidin-2-yl]ethenyl}pyridin-2(1H)-one]",0.5 to 3 µM

# The remaining lines, values ahead:
row,EC50,SMILES
1,0.01 to 0.5 µM,"O=C1CC[C@H](/C=C(\c2ccc(S(=O)(=O)C3CC3)c(Cl)c2)c2ccc(Cl)c(=O)[nH]2)N1 [Example 4-59, 3-Chloro-6-{(E)-1-[3-chloro-4-(cyclopropylsulfonyl)phenyl]-2-[(2R)-5-oxopyrrolidin-2-yl]ethenyl}pyridin-2(1H)-one]"
2,0.5 to 3 µM,"CN1CCN(S(=O)(=O)c2ccc(/C(=C\[C@H]3CCC(=O)N3)c3ccc(Cl)c(=O)[nH]3)cc2)CC1 [Example 4-61, 3-Chloro-6-{(E)-1-{4-[(4-methylpiperazin-1-yl)sulfonyl]phenyl}-2-[(2R)-5-oxopyrrolidin-2-yl]ethenyl}pyridin-2(1H)-one]"
3,0.5 to 3 µM,"CCN(CC)CCCOc1ccc(/C(=C\[C@H]2CCC(=O)N2)c2ccc(C3CC3)c(=O)[nH]2)cc1 [Example 4-65, 3-Cyclopropyl-6-{(E)-1-{4-[3-(diethylamino)propoxy]phenyl}-2-[(2R)-5-oxopyrrolidin-2-yl]ethenyl}pyridin-2(1H)-one]"
4,0.01 to 0.5 µM,"CC(C)(C)c1ccc(/C(=C\[C@H]2CCC(=O)N2)c2ccc(Cl)c(=O)[nH]2)cc1Cl [Example 4-71, 6-{(E)-1-(4-tert-Butyl-3-chlorophenyl)-2-[(2R)-5-oxopyrrolidin-2-yl]ethenyl}-3-chloropyridin-2(1H)-one]"
5,0.5 to 3 µM,"COCCCCc1ccc(/C(=C\[C@H]2CCC(=O)N2)c2ccc(Cl)c(=O)[nH]2)cc1 [Example 4-73, 3-Chloro-6-{(E)-1-[4-(4-methoxybutyl)phenyl]-2-[(2R)-5-oxopyrrolidin-2-yl]ethenyl}pyridin-2(1H)-one]"
6,0.01 to 0.5 µM,"CC(C)(C)c1ccc(/C(=C\[C@H]2CCC(=O)N2)c2ccc(C(F)(F)F)c(=O)[nH]2)cc1 [Example 4-74, 6-{(E)-1-(4-tert-Butylphenyl)-2-[(2R)-5-oxopyrrolidin-2-yl]ethenyl}-3-(trifluoromethyl)pyridin-2(1H)-one]"
7,3 to 10 µM,"CC(C)(C)c1ccc(/C(=C\[C@@H]2CCC(=O)N2)c2ccc(Cl)c(=O)[nH]2)cc1 [Example 4-75, 6-{(E)-1-(4-tert-Butylphenyl)-2-[(2S)-5-oxopyrrolidin-2-yl]ethenyl}-3-chloropyridin-2(1H)-one]"
8,0.01 to 0.5 µM,"O=C(C1CC1)N1CC[C@H](/C=C(\c2ccc(Cl)cc2)c2ccc(C3CC3)c(=O)[nH]2)C1 [Example 4-78, 6-{(E)-1-(4-Chlorophenyl)-2-[(3R)-1-(cyclopropylcarbonyl)pyrrolidin-3-yl]ethenyl}-3-cyclopropylpyridin-2(1H)-one]"
9,0.5 to 3 µM,"CN1CCOc2cc(/C(=C\[C@H]3CCC(=O)N3)c3ccc(Cl)c(=O)[nH]3)ccc21 [Example 4-79, 3-Chloro-6-{(E)-1-(4-methyl-3,4-dihydro-2H-1,4-benzoxazin-7-yl)-2-[(2R)-5-oxopyrrolidin-2-yl]ethenyl}pyridin-2(1H)-one]"
10,0.01 to 0.5 µM,"CC(C)c1ccc([C@@H](C[C@H]2CCC(=O)N2)c2ccc(C3CC3)c(=O)[nH]2)cc1 [Example 4-80, 3-Cyclopropyl-6-{(1R)-2-[(2R)-5-oxopyrrolidin-2-yl]-1-[4-(propan-2-yl)phenyl]ethyl}pyridin-2(1H)-one]"
11,3 to 10 µM,"CC(C)c1ccc(/C(=C/[C@H]2CCC(=O)N2)c2ccc(Cl)c(=O)[nH]2)cc1 [Example 4-82, 3-Chloro-6-{(Z)-2-[(2R)-5-oxopyrrolidin-2-yl]-1-[4-(propan-2-yl)phenyl]ethenyl}pyridin-2(1H)-one]"
12,0.01 to 0.5 µM,"CC(C)(C)c1ccc(/C(=C\[C@H]2CCC(=O)N2)c2ccc(C3CC3)c(=O)[nH]2)cc1 [Example 4-83, 6-{(E)-1-(4-tert-Butylphenyl)-2-[(2R)-5-oxopyrrolidin-2-yl]ethenyl}-3-cyclopropylpyridin-2(1H)-one]"
13,0.5 to 3 µM,"O=C1CC[C@H](/C=C(\c2ccc(C3CC3)cc2)c2ccc(Cl)c(=O)[nH]2)N1 [Example 4-88, 3-Chloro-6-{(E)-1-(4-cyclopropylphenyl)-2-[(2R)-5-oxopyrrolidin-2-yl]ethenyl}pyridin-2(1H)-one]"
14,0.5 to 3 µM,"O=C1CC[C@H](/C=C(\c2ccc(OC3CC3)cc2)c2ccc(Cl)c(=O)[nH]2)N1 [Example 4-90, 3-Chloro-6-{(E)-1-[4-(cyclopropyloxy)phenyl]-2-[(2R)-5-oxopyrrolidin-2-yl]ethenyl}pyridin-2(1H)-one]"
15,0.01 to 0.5 µM,"CC(C)(C)c1ccc(/C(=C\[C@H]2CCN(C(=O)C3CC3)C2)c2ccc(Cl)c(=O)[nH]2)cc1 [Example 4-92, 6-{(E)-1-(4-tert-Butylphenyl)-2-[(3R)-1-(cyclopropylcarbonyl)pyrrolidin-3-yl]ethenyl}-3-chloropyridin-2(1H)-one]"
16,0.01 to 0.5 µM,"O=C1CC[C@H](/C=C(\c2ccc(Cl)cc2)c2ccc(C3CC3)c(=O)[nH]2)N1 [Example 4-98, 6-{(E)-1-(4-Chlorophenyl)-2-[(2R)-5-oxopyrrolidin-2-yl]ethenyl}-3-cyclopropylpyridin-2(1H)-one]"
17,0.01 to 0.5 µM,"O=C1CC[C@H](/C=C(\c2ccc(C(F)(F)F)cc2)c2ccc(C3CC3)c(=O)[nH]2)N1 [Example 4-99, 3-Cyclopropyl-6-{(E)-2-[(2R)-5-oxopyrrolidin-2-yl]-1-[4-(trifluoromethyl)phenyl]ethenyl}pyridin-2(1H)-one]"
